Results reported in the supplement of paper PMC10307832.

Assays:
Experiment in all cases: relative viability (nuclei count vs DMSO), 5 days (fraction); higher = more cells survive
17-AAG = compound: C=CCNC1=C2C[C@@H](C)C[C@H](OC)[C@H](O)[C@@H](C)/C=C(\C)[C@H](OC(N)=O)[C@@H](OC)/C=C\C=C(/C)C(=O)NC(=CC1=O)C2=O [17-AAG]
Method in brief: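 Viability is treated-well nuclei as a fraction of vehicle-well nuclei, reported as the median across plates. Before counting, lung cancer cell lines were kept overnight at 37 °C in 1536-well plates, pinned with five √10-spaced library-drug doses on vehicle-anchored plates, and left 5 days without medium change, then fixed, permeabilised and Hoechst-stained in one step, imaged at 4× and counted by MetaXpress. A plate passed only if control CV was below 25% and at least one doubling occurred.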

17-AAG + Luminespib = compound: C=CCNC1=C2C[C@@H](C)C[C@H](OC)[C@H](O)[C@@H](C)/C=C(\C)[C@H](OC(N)=O)[C@@H](OC)/C=C\C=C(/C)C(=O)NC(=CC1=O)C2=O [17-AAG] + CCNC(=O)c1noc(-c2cc(C(C)C)c(O)cc2O)c1-c1ccc(CN2CCOCC2)cc1 [Luminespib] (partner 0.01 µM)
Method in brief: (§1)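 Lung cancer cell lines were seeded in 1536-well plates and dosed by pin tool the next day, with either a single drug or a fixed anchor-drug dose combined with five library-drug doses (not always all listed) spaced in √10 steps. Five days later, one step fixed the cells and stained their nuclei (final 0.05% Triton X-100, 1% formaldehyde, 1 ug/ml Hoechst), and nuclei were counted on 4× images. Relative viability is the nuclei count in treated wells divided by the count in vehicle wells, and each value is the median of duplicate plates.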

17-AAG + Foretinib = compound: C=CCNC1=C2C[C@@H](C)C[C@H](OC)[C@H](O)[C@@H](C)/C=C(\C)[C@H](OC(N)=O)[C@@H](OC)/C=C\C=C(/C)C(=O)NC(=CC1=O)C2=O [17-AAG] + COc1cc2c(Oc3ccc(NC(=O)C4(C(=O)Nc5ccc(F)cc5)CC4)cc3F)ccnc2cc1OCCCN1CCOCC1 [Foretinib] (partner 0.25 µM)
Method in brief: as §1

17-AAG + OSI-027 = compound: C=CCNC1=C2C[C@@H](C)C[C@H](OC)[C@H](O)[C@@H](C)/C=C(\C)[C@H](OC(N)=O)[C@@H](OC)/C=C\C=C(/C)C(=O)NC(=CC1=O)C2=O [17-AAG] + COc1cccc2cc(-c3nc([C@H]4CC[C@H](C(=O)O)CC4)n4ncnc(N)c34)[nH]c12 [OSI-027] (partner 0.5 µM)
Method in brief: as §1

17-AAG + Tozasertib = compound: C=CCNC1=C2C[C@@H](C)C[C@H](OC)[C@H](O)[C@@H](C)/C=C(\C)[C@H](OC(N)=O)[C@@H](OC)/C=C\C=C(/C)C(=O)NC(=CC1=O)C2=O [17-AAG] + Cc1cc(Nc2cc(N3CCN(C)CC3)nc(Sc3ccc(NC(=O)C4CC4)cc3)n2)n[nH]1 [Tozasertib] (partner 0.1 µM)
Method in brief: as §1

17-AAG + Dasatinib = compound: C=CCNC1=C2C[C@@H](C)C[C@H](OC)[C@H](O)[C@@H](C)/C=C(\C)[C@H](OC(N)=O)[C@@H](OC)/C=C\C=C(/C)C(=O)NC(=CC1=O)C2=O [17-AAG] + Cc1nc(Nc2ncc(C(=O)Nc3c(C)cccc3Cl)s2)cc(N2CCN(CCO)CC2)n1 [Dasatinib] (partner 0.075 µM)
Method in brief: as §1

17-AAG + Phenformin = compound: C=CCNC1=C2C[C@@H](C)C[C@H](OC)[C@H](O)[C@@H](C)/C=C(\C)[C@H](OC(N)=O)[C@@H](OC)/C=C\C=C(/C)C(=O)NC(=CC1=O)C2=O [17-AAG] + N=C(N)NC(=N)NCCc1ccccc1 [Phenformin] (partner 250 µM)
Method in brief: as §1

NCI-H1623 showed a relative viability (17-AAG; 0.00128 µM) of 0.978, a relative viability (17-AAG; 0.004048 µM) of 0.919 and a relative viability (17-AAG; 0.0128 µM) of 0.755. The relative viability (17-AAG; 0.04048 µM) was 0.31, the relative viability (17-AAG; 0.128 µM) was 0.383 and the relative viability (17-AAG + Luminespib; first compound 0.00128 µM) was 0.555. The relative viability (17-AAG + Luminespib; first compound 0.004048 µM) was 0.369, the relative viability (17-AAG + Luminespib; first compound 0.0128 µM) was 0.283 and the relative viability (17-AAG + Luminespib; first compound 0.04048 µM) was 0.273. It also gave a relative viability (17-AAG + Luminespib; first compound 0.128 µM) of 0.267, a relative viability (17-AAG + Foretinib; first compound 0.00128 µM) of 0.87 and a relative viability (17-AAG + Foretinib; first compound 0.004048 µM) of 0.695. For the same cell line, the relative viability (17-AAG + Foretinib; first compound 0.0128 µM) was 0.491, the relative viability (17-AAG + Foretinib; first compound 0.04048 µM) was 0.304 and the relative viability (17-AAG + Foretinib; first compound 0.128 µM) was 0.336. For the same cell line, the relative viability (17-AAG + OSI-027; first compound 0.00128 µM) was 0.475, the relative viability (17-AAG + OSI-027; first compound 0.004048 µM) was 0.463 and the relative viability (17-AAG + OSI-027; first compound 0.0128 µM) was 0.33. It also gave a relative viability (17-AAG + OSI-027; first compound 0.04048 µM) of 0.254, a relative viability (17-AAG + OSI-027; first compound 0.128 µM) of 0.33 and a relative viability (17-AAG + Tozasertib; first compound 0.00128 µM) of 0.412. It also gave a relative viability (17-AAG + Tozasertib; first compound 0.004048 µM) of 0.401, a relative viability (17-AAG + Tozasertib; first compound 0.0128 µM) of 0.497 and a relative viability (17-AAG + Tozasertib; first compound 0.04048 µM) of 0.261. It also gave a relative viability (17-AAG + Tozasertib; first compound 0.128 µM) of 0.31, a relative viability (17-AAG + Dasatinib; first compound 0.00128 µM) of 0.625 and a relative viability (17-AAG + Dasatinib; first compound 0.004048 µM) of 0.351. The relative viability (17-AAG + Dasatinib; first compound 0.0128 µM) was 0.284, the relative viability (17-AAG + Dasatinib; first compound 0.04048 µM) was 0.265 and the relative viability (17-AAG + Dasatinib; first compound 0.128 µM) was 0.284. The relative viability (17-AAG + Phenformin; first compound 0.00128 µM) was 0.614, the relative viability (17-AAG + Phenformin; first compound 0.004048 µM) was 0.369 and the relative viability (17-AAG + Phenformin; first compound 0.0128 µM) was 0.323. The relative viability (17-AAG + Phenformin; first compound 0.04048 µM) was 0.268 and the relative viability (17-AAG + Phenformin; first compound 0.128 µM) was 0.285.
